According to patent publication US20240415800A1, “DOPA AND CAFFEIC ACID ANALOGS AS NOVEL GCPII INHIBITORS” (The Johns Hopkins University, priority 2021, published 2024):
Values joined by “and” are separate entries in the source; they are usually repeats but may differ in a detail not shown here. Equal values may be shown once. “Also recorded” adds a separate entry of the source. Read-outs that look alike come from different tables or passages of the source. Blank lines part the entries; values can stand above or below the molecule they belong to.

How the values were obtained:
[1] = target: T1, Recombinant human GCPII enzyme (Homo sapiens (Human), UniProt Q04609); assay: GCPII activity assay (IC50, radiolabelled NAAG hydrolysis); assay type: biochemical; details: for GCPII inhibitory potency (in words): SAR of L-DOPA analogs
T1 sequence (Q04609 whole entry): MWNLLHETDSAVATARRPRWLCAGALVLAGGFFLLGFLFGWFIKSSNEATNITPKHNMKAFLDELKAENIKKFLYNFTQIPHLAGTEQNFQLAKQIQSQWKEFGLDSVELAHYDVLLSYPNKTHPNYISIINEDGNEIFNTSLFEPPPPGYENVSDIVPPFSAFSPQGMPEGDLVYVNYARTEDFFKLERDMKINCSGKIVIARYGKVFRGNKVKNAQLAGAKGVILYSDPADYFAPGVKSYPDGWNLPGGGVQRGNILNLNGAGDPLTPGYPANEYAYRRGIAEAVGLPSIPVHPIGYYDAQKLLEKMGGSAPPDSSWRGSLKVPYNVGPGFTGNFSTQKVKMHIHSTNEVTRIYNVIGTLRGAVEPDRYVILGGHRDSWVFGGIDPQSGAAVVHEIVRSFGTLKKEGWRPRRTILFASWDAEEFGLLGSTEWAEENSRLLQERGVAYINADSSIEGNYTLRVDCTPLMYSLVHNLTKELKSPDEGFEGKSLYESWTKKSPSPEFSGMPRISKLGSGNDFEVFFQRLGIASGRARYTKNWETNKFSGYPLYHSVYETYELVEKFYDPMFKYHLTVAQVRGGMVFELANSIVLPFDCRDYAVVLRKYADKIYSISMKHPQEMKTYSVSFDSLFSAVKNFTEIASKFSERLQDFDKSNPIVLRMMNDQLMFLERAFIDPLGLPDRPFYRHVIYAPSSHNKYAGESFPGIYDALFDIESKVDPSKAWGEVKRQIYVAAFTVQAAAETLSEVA

[2] = In vitro metabolic stability in mouse plasma and brain homogenate; assay type: in vitro ADME; details: 10 μM, 1 h
Experimental: Zimmermann et al., 2018. For the brain homogenates, washed tissues were diluted 10-fold in 0.1 M potassium phosphate buffer and homogenized using a probe sonicator. Crude homogenate and plasma were aliquoted to 1 mL and spiked with a final assay concentration of 10 μM of the respective catechol followed by incubation in an orbital shaker at 37° C. for 1 h (in triplicate). An aliquot from each incubated homogenate was quenched with three volumes of acetonitrile containing the internal standard (IS; losartan: […]) at predetermined time points (0, 30, 60 min). Samples were vortex-mixed for 30 secs and centrifuged at 10,000×g for 10 min at 4° C.
Disappearance of respective catechol was monitored on a Dionex Ultimate 3000 ultra-high-performance LC system coupled with Q Exactive Focus orbitrap mass spectrometer (Thermo Fisher Scientific Inc., Waltham MA). The separation of analytes was achieved using the Agilent Eclipse Plus column (100×2.1 mm i.d.; maintained at 35° C.) packed with a 1.8 μm C18 stationary phase. The mobile phase consisted of 0.1% formic acid in water and 0.1% formic acid in acetonitrile. Pumps were operated at a flow rate of 0.4 mL/min for 9 min using gradient elution. […] Quantification of the compounds was performed in the full-scan mode (from m/z 50 to 1600) by comparing t=0 samples with t=30- and 60-min samples.

[3] = Time-dependent PK of D-DOPA with or without sodium benzoate (Example 2); assay type: in vivo, CD-1 mice
Experimental: All of the formulations were freshly prepared prior to the dosing. […] Tissue and plasma collection were carried out as described above. […] Van […] et al., 2020; Wang et al., 2015. While D-/L-DOPA required derivatization with acetic anhydride, caffeic acid was analyzed using a single step protein precipitation method. […] Plasma and brain tissue samples were processed by matching the dilutions of calibration standards of the respective tissue. […] The solutions were vortexed for 15 secs and then allowed to sit at room temperature for 45 mins. These mixtures were vortexed again for 10 sec and centrifuged at 10,000 g for 10 mins to collect the supernatant. A 50 μL aliquot of the supernatant was transferred to 250 μL polypropylene autosampler vials sealed with Teflon caps. 2 μL of the sample was injected into the LC/MS/MS system for analysis. Chromatographic analysis was performed using Thermo Scientific Vanquish UPLC system consisting of an analytical pump and an autosampler coupled with a […] spectrometer. For all analytes, the mobile phase used for the chromatographic separation composed of 0.1% formic acid in acetonitrile and 0.1% formic acid in water delivered as a gradient while pumping a flow rate of 0.400 mL/min. […] The analyte was monitored using ThermoScientific […] triple-quadrupole mass-spectrometric detector equipped with an electrospray interface, and operated in negative ion mode. The instrument was controlled by Thermo Scientific Xcalibur (version 4.2.47) software. […] Plasma concentrations (nmol/mL) and brain tissue concentrations (nmol/g) were determined and plots of mean plasma or brain concentrations versus time were constructed.

[4] = Solubility of D-DOPA in intranasal dosing vehicle; assay type: physicochemical
[5] = target: T1, Recombinant human GCPII enzyme; details: NAAG saturation, D-DOPA 0-400 nM
[6] = target: T1, Recombinant human GCPII enzyme; assay: biochemical
[7] = Pharmacokinetics of D-DOPA in mouse plasma and brain (IV, PO, IN; Example 1); assay type: in vivo, CD1 mice; details: for Kp: brain/plasma, read-out: AUCBrain/Plasma (brain penetration index)
[8] = Mouse two-point oral pharmacokinetic screening; design: species or system CD-1 mice; details: in vivo, 50 mg/kg
Experimental: Male CD-1 mice between 25-30 g were obtained from Harlan and maintained on a 12 h light-dark cycle with ad libitum access to food and water. […] All of the formulations were freshly prepared prior to the dosing. […] For the collection of plasma and brain tissue, animals were euthanized with CO2, and blood samples were collected in heparinized microtubes by cardiac puncture. Brains were dissected and immediately flash frozen (-80° C.). […] Van […] et al., 2020; Wang et al., 2015. While D-/L-DOPA required derivatization with acetic anhydride, caffeic acid was analyzed using a single step protein precipitation method. […] Plasma and brain tissue samples were processed by matching the dilutions of calibration standards of the respective tissue. […] The solutions were vortexed for 15 secs and then allowed to sit at room temperature for 45 mins. These mixtures were vortexed again for 10 sec and centrifuged at 10,000 g for 10 mins to collect the supernatant. A 50 μL aliquot of the supernatant was transferred to 250 μL polypropylene autosampler vials sealed with Teflon caps. 2 μL of the sample was injected into the LC/MS/MS system for analysis. […] Then, 2 μL of the sample was analyzed using LC/MS/MS system as mentioned above. Plasma concentrations (nmol/mL) and brain tissue concentrations (nmol/g) were determined and plots of mean plasma or brain concentrations versus time were constructed.

[9] = target: GCPII activity in the brain (Mus musculus (Mouse), UniProt O35409); assay: GCPII target engagement: GCPII activity in brain after dosing; assay type: in vivo, CD1 mouse
GCPII activity in the brain, sequence (O35409 whole entry): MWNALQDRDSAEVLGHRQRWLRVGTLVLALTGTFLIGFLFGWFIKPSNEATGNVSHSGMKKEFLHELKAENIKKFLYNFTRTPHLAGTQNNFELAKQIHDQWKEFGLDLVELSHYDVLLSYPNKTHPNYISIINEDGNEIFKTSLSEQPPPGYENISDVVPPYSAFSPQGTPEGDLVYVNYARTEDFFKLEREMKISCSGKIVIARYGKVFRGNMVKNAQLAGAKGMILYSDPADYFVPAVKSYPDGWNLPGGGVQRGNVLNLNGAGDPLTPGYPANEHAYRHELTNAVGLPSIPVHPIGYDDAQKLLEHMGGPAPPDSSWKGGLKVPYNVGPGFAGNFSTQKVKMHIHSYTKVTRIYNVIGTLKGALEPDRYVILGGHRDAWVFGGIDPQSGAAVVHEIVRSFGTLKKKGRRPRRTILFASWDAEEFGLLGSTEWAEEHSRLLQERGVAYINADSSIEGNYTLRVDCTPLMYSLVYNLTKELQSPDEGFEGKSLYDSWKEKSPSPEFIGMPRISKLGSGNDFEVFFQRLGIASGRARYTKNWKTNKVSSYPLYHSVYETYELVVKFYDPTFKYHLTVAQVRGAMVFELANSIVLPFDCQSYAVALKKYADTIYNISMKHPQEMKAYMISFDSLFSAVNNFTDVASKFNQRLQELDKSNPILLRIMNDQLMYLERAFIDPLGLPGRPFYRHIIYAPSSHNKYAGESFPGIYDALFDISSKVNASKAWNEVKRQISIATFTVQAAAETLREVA

[10] = Table 1, catechol scaffolds for GCPII inhibition
[11] = Table 2-1, human recombinant GCPII
[12] = PO 50 mg/kg + sodium benzoate 400 mg/kg IP, brain

IC50 [1, 10]: 400 nM
IC50 [1, 11]: 600 nM
SMILES: N[C@@H](Cc1ccc(O)c(O)c1)C(=O)O [L-DOPA]
GCPII inhibitory potency (in words) [1]: sub-micromolar potencies; also recorded: submicromolar inhibitor of GCPII

GCPII inhibitory potency (in words) [1]: loss of potency
IC50 [1, 11]: > 100000 nM
SMILES: NCCc1ccc(O)c(O)c1 [Compound 2-7, Dopamine]

IC50 ([1]; GCPII): 200 nM
GCPII inhibitory potency (in words) [1]: sub-micromolar potencies
Kp ([3]; CD-1, mouse, brain/plasma, PO 50 mg/kg + sodium benzoate 400 mg/kg IP, read-out: brain penetration index): 0.03
AUC ([3]; CD-1, mouse, plasma, iv, 10 mg/kg, IV 10 mg/kg, plasma, read-out: AUCIV): 30.5 µM·h
AUC ([3]; CD-1, mouse, plasma, oral, PO 50 mg/kg + sodium benzoate 400 mg/kg IP, plasma, read-out: AUCPlasma): 185 µM·h
AUC ([3]; CD-1, mouse, plasma, po, 50 mg/kg, PO 50 mg/kg + sodium benzoate 400 mg/kg IP, plasma, read-out: AUCPlasma): 185 µM·h
AUC ([3]; CD-1, mouse, plasma, po, 50 mg/kg, PO 50 mg/kg monotherapy, plasma, read-out: AUCPO-plasma): 72.7 µM·h
Cmax ([3]; CD-1, mouse, PO 50 mg/kg monotherapy, brain, read-out: Cmax): 1.74 µM
time brain levels stayed >IC50 value of 0.2 μM ([3]; PO 50 mg/kg + sodium benzoate 400 mg/kg IP): over 3 h
AUCBrain [3, 12]: 5.48 nmol·h/g
Cmax [3, 12]: 3.2 nmol/g and 3.20 nmol/g
Cmax ([3]; PO 50 mg/kg + sodium benzoate 400 mg/kg IP, plasma, read-out: Cmax): 151 µM
time brain concentrations were >IC50 ([3]; PO 50 mg/kg monotherapy): up to 1 h
AUCPO-Brain ([3]; PO 50 mg/kg monotherapy, brain): 2.42 nmol·h/g
Cmax ([3]; PO 50 mg/kg monotherapy, brain): 1.74 nmol/g
Tmax ([3]; PO 50 mg/kg monotherapy, brain): 30 min
oral bioavailability (AUCPO/IV) ([3]; PO 50 mg/kg vs IV 10 mg/kg): 47.7%
enhancement in both plasma and brain exposures ([3]; combination with sodium benzoate vs D-DOPA alone): > 200%
solubility in vehicle [4]: poor solubility
Ki [6]: ~400 nM
Kp ([7]; CD1, mouse, other: intranasal, 3.4 mg/kg, IN 3.4 mg/kg): 0.051
Kp ([7]; CD1, mouse, po, 30 mg/kg, PO 30 mg/kg): < 0.05
Cmax ([7]; CD1, mouse, inhaled or intranasal, IN 3.4 mg/kg, plasma, read-out: Cmax): 4.45 ± 0.971 µM
AUC0-t ([7]; CD1, mouse, plasma, inhaled or intranasal, 3.4 mg/kg, IN 3.4 mg/kg, plasma, read-out: AUC0-t): 2.7 ± 0.508 µM·h
AUC0-t ([7]; CD1, mouse, plasma, iv, 10 mg/kg, IV 10 mg/kg, plasma, read-out: AUC0-t): 30.5 ± 2.04 µM·h
Tmax ([7]; CD1, mouse, plasma, iv, 10 mg/kg, IV 10 mg/kg, plasma, read-out: Tmax): ≤ 0.0833 h
Tmax ([7]; CD1, mouse, plasma, iv, 10 mg/kg, IV 10 mg/kg, plasma, read-out: Tmax (h)): 0.0833 h
bioavailability ([7]; CD1, mouse, plasma, PO 30 mg/kg vs IV 10 mg/kg, read-out: Bioavailability (% F)): 36%
Cmax ([7]; CD1, mouse, PO 30 mg/kg, plasma, read-out: Cmax): 43.1 ± 2.58 µM
AUC0-t ([7]; IN 3.4 mg/kg, brain): 0.139 ± 0.0268 nmol·h/g
Cmax ([7]; IN 3.4 mg/kg, brain): 0.102 ± 0.00823 nmol/g
Tmax ([7]; IN 3.4 mg/kg, plasma): 0.250 h
AUC0-t ([7]; PO 30 mg/kg, brain): 1.09 ± 0.103 nmol·h/g
Cmax ([7]; PO 30 mg/kg, brain): 0.472 ± 0.124 nmol/g
AUC0-t ([7]; PO 30 mg/kg, plasma): 32.92 ± 0.731 µM·h
Cmax ([7]; mouse, IV 10 mg/kg, plasma, CD1 mice, read-out: Cmax): 61.1 ± 5.09 µM
plasma and brain exposure (in words) [8]: higher plasma and brain exposure
GCPII activity in brain (cortex) ([9]; PO 30 mg/kg, 1 h post dose): significant inhibition of GCPII activity
GCPII activity in brain ([9]; PO 50 mg/kg monotherapy, 30 min, vs untreated): significant inhibition of GCPII activity
SMILES: N[C@H](Cc1ccc(O)c(O)c1)C(=O)O [D-DOPA, D-3,4-dihydroxyphenylalanine]
metabolic stability (in words) [2]: good metabolic stability; also recorded: superior in vitro stability
mode of inhibition [5]: noncompetitive, allosteric inhibitor of GCPII
GCPII activity in brain ([9]; PO 50 mg/kg + sodium benzoate 400 mg/kg IP, 30 min): significantly outperformed D-DOPA alone; also recorded: significant inhibition of GCPII activity; also recorded: significantly outperformed D-DOPA mono-therapy
GCPII activity in brain ([9]; intranasal dosing): insufficient exposures to the brain to affect GCP II activity

IC50 ([1]; GCPII): 300 nM
GCPII inhibitory potency (in words) [1]: sub-micromolar potencies
IC50 [1, 10]: 100 nM
SMILES: O=C(O)/C=C/c1ccc(O)c(O)c1 [Caffeic acid]

GCPII inhibitory potency (in words) [1]: complete loss of potency
IC50 [1, 11]: > 100000 nM
SMILES: NC(Cc1ccc(=O)n(O)c1)C(=O)O (stereo not drawn) [Compound 2-4]

GCPII inhibitory potency (in words) [1]: loss of potency
IC50 [1, 11]: 20000 nM
SMILES: CC(=O)N[C@@H](Cc1ccc(O)c(O)c1)C(=O)O [Compound 2-6]

GCPII inhibitory potency (in words) [1]: substantial loss of potency
IC50 [1, 11]: > 100000 nM
SMILES: COc1ccc(C[C@H](N)C(=O)O)cc1OC [Compound 2-3]

SMILES: N[C@@H](Cc1ccc(O)cc1)C(=O)O [Compound 2-2, Tyr]
GCPII inhibitory potency (in words) [1]: substantial loss of potency
IC50 [1, 11]: 100000 nM

IC50 [1, 11]: 4000 nM
decrease in inhibitory potency ([1]; relative to L-DOPA): 6.7 fold
SMILES: O=C(O)CCc1ccc(O)c(O)c1 [Compound 2-8]

GCPII inhibitory potency (in words) [1]: loss of potency
IC50 [1, 11]: > 100000 nM
SMILES: C[C@](N)(Cc1ccc(O)c(O)c1)C(=O)O [Compound 2-5]
